According to patent publication US4918064A, “Phenyl glycines for use in reducing neurotoxic injury” (G. D. Searle & Co., priority 1987, dated 1990):

Columns and labels:
hippocampal neurons [1] = assay type: cell-based, Sprague-Dawley rat; conditions: 1 μM compound
Method: Hippocampal neurons were obtained from embryonic day 17 Sprague-Dawley rats. The brains were removed and the hippocampus dissected, placed in ice-cold Leibovitz L-15 medium, carefully stripped of any remaining meninges, and minced into small pieces using scissors. The tissue was rinsed with calcium-magnesium-free Hanks' Balanced Salt Solution and incubated with 0.25% trypsin (Worthington), 40 μg/ml DNAase (Sigma) for 30 minutes at 36° C. Following incubation, the cells were rinsed with 10% serum-containing medium and dissociated by gentle trituration using a reduced bore diameter Pasteur pipet. The cells were plated on a polylysine-coated (0.5 rg/ml, Sigma) 96-well microtiter plates at 30,000 cells/well. Cells were maintained in fluorodeoxyuridine (5 μM) containing chemically defined medium [Bottenstein, J., Sato, G., "Growth of a Rat Neuroblastoma Cell Line in Serum-free Supplemented Medium", Proc. Nat'l. […]

hippocampal neurons [2] = test: Hypoxia Survival Assay, cultured hippocampal neurons (MTT); assay type: cell-based, Sprague-Dawley rat; conditions: 50 μM compound
Method: Hippocampal neurons were obtained from embryonic day 17 Sprague-Dawley rats. The brains were removed and the hippocampus dissected, placed in ice-cold Leibovitz L-15 medium, carefully stripped of any remaining meninges, and minced into small pieces using scissors. The tissue was rinsed with calcium-magnesium-free Hanks' Balanced Salt Solution and incubated with 0.25% trypsin (Worthington), 40 μg/ml DNAase (Sigma) for 30 minutes at 36° C. Following incubation, the cells were rinsed with 10% serum-containing medium and dissociated by gentle trituration using a reduced bore diameter Pasteur pipet. […]
The neuronal survival assay utilized the compound MTT [3-(4,5-dimethylthiazol-2-yl)-2,5-diphenyl tetrazolium bromide], a pale yellow substrate that is cleaved by the mitochondrial enzyme succinate-dehydrogenase to yield a dark blue formazan product. […] The precipitate was then solubilized using 0.08N HCl/isopropanol mixture and the absorbance measured with an ELISA plate reader (Dynatech MR600) using a test wavelength of 570 nm and a reference wavelength of 630 nm. […]
The cells were grown for 2-3 weeks in 5% CO2 -in-air humidified environment at 36° C. to establish a thick network of neuronal processes with numerous spontaneously active synapses. […] Following 2 hours of exposure to normal O2 tension, the cultures were processed for morphological and quantitive biochemical neuronal cell viability assays.

[3] = target: Quis (quisqualate) receptor; test: [3H]AMPA (QUIS) receptor binding assay, synaptic plasma membranes; conditions: [3H]AMPA 10 nM, 100 mM KSCN, 0-4° C., 10 min
Method: Synaptic plasma membranes (SPM) were prepared as previously described [Monahan, J. B. and Michel, J., "Identification and Characterization of an N-methyl-D-aspartate-specific L[^3 H]glutamate Recognition Site in Synaptic Plasma Membranes, J. Neurochem., 48, 1699-1708 (1987)]. The SPM were stored at a concentration of 10-15 mg/ml in 0.32M sucrose, 0.5 mM EDTA, 1 mM MgSO4, 5 mM Tris/SO4, pH 7.4, under liquid nitrogen. The identity and purity of the subcellular fractions were confirmed by both electron microscopy and marker enzymes. Protein concentrations were determined by using a modification of the method of Lowry [Ohnishi, S. T. and Barr, J. K., "A Simplified Method of Quantitating Proteins Using the Biuret and Phenol Reagents", Anal. Biochem., 86, 193-197 (1978)].
The SPM were treated identically for the [^3 H]AMPA (QUIS), [^3 H]kainate and sodium-dependent L-[^3 H]-glumatate binding assays. The SPM were thawed at room temperature, diluted twenty-fold with 50 mM Tris/acetate, pH 7.4, incubated at 37° C. for 30 minutes, and centrifuged at 100,000 g for 15 minutes. The dilution, incubation, and centrifugation was repeated a total of three times.
The basic procedure for the receptor subclass binding assays was similar. This general method involved adding the radioligand (12.5 nM L-[^3 H]glutamate; 0.5 nM [^3 H]kainate or 10 nM [^3 H]AMPA) to the appropriate concentration of the test compound and initiating the assay by the addition of ice cold synaptic plasma membranes (0.2-0.45 mg). The binding assays were performed in 1.5 mL centrifuge tubes with the total volume adjusted to 1.0 mL. .Additions of test compounds were made in 50 mM Tris/acetate, pH 7.4 and incubations were carried out at 0°-4° C. The incubation time for the NMDA and the AMPA binding assays was 10 minutes, for the kainate binding assay 60 minutes and for the sodium-dependent glutamate binding assay 15 minutes. The AMPA binding assay contained 100 mM KSCN and the sodium-dependent glutamate binding assay contained 150 mM sodium acetate in addition to the previously described reagents.
To terminate the incubation, the samples were centrifuged for 15 minutes at 12,000 g and 4° C. in a Beckman Microfuge 12. The supernatant was aspirated and the pelleted membranes dissolved in Beckman BTS-450 tissue solubilizer for a minimum of 6 hours at room temperature. Beckman MP scintillation cocktail containing 7 mL/1 acetic acid was then added and the samples counted on a Beckman LS 5800 or 3801 liquid scintillation counter with automatic corrections for quenching and counting efficiency.
Nonspecific binding was defined as the residual binding in the presence of either excess L-glutamate (0.1-0.4 mM), kainate (0.01 mM), or NMDA (0.5 mM), and was 15-25% of the total binding in the NMDA binding assay, 19-27% in the AMPA binding assay, 20-30% in the kainate binding assay and 10-15% in the sodium-dependent binding assay. Radioligand binding to the synaptic plasma membranes was analyzed using Scatchard and Hill transformations and the Ki values of the compounds determined using logit-log transformations. Calculations and regression analysis were performed using templates developed for Lotus 1, 2, 3 as previously described [Pullan, L. M. "Automated Radioligand Receptor Binding Analysis with Templates for Lotus", Computer Appln. Biosci., 3 131 (1987)]. Binding results are reported in Table II for example compounds of the invention. […]

NC(C(=O)O)c1ccc(CP(=O)(O)O)cc1 (stereo not drawn) [Example VI, 4-(Phosphonomethyl)phenylglycine]
protection of neurons from sodium azide toxicity (hippocampal neurons [1]): significant protection
protection of neurons from hypoxic insult (hippocampal neurons [2]): Maximum protection of neurons from hypoxic insult
Ki [3]: > 300 µM
